Measurements: patent US20030065039A1, “Biologically active 1,3-bis-aromatic-prop-2-en-1-ones, 1,3-bis-aromatic-propan-1-ones, and 1,3-bis-aromatic-prop-2-yn-1-ones” (Statens Serum Institute, priority 1997, published 2003)
Where two headings read alike, the source gives them in different places.

Assays:
Type in all cases: cell-based
[1] = tested on: Plasmodium falciparum; test: Plasmodium falciparum Assay; settings: 3-H-hypoxanthine incorporation, 48 hours, read-out: Plasmodium IC50 ± SD
How it was run: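 Parasitized erythrocytes (~1% parasitemia, 5×10^8/ml) cultured 48 h in RPMI with test compound, with 3H-hypoxanthine added for the last 24 h. Growth inhibition read as 3H-hypoxanthine incorporation into parasite DNA by liquid scintillation; uninfected and untreated infected cultures run in parallel.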

[2] = tested on: Leishmania promastigotes; test: Leishmania promastigotes Assay; settings: promastigotes, 3H-thymidine uptake, read-out: Leishmania IC50 ± SD
How it was run: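 L. major (WHO Iran vaccine strain) and L. donovani MHOM/KE/85/NLB 274 promastigotes (3×10^6/ml, day 3 and 6 cultures) exposed to compound 2 h at 26 °C, then 3H-thymidine 18 h; incorporation counted by scintillation. Microscopic counts and flagellar motility also assessed.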

[3] = tested on: human lymphocytes; test: Lymphocyte Proliferation Assay; settings: PHA provoked proliferation of human lymphocytes, read-out: Lymphocytes IC50 ± SD
How it was run: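 Ficoll-isolated human blood mononuclear cells (0.63×10^5/ml) in RPMI 1640 with 5% FCS were cultured in triplicate with test compound and PHA or PPD for 3 or 7 days. Proliferation measured by ^3H-thymidine incorporation over the final 24 h; triplicate median recorded.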

[4] = tested on: TNF-α; test: TNF-α production by human peripheral blood mononuclear cells, culture supernatant (ELISA); settings: for inhibition at 1 µg/mL / inhibition at 5 µg/mL / inhibition at 10 µg/mL / inhibition at 20 µg/mL / inhibition at 1.25 µg/mL / inhibition at 6.25 µg/mL / inhibition at 12.5 µg/mL: Homo sapiens, PBMC, read-out: percentage inhibition of TNF-α production
Procedure: Cells: Peripheral blood mononuclear cells obtained from healthy individuals. The cells were separated by a conventional method lymphoprep) and suspended in RMPI 1640 containing 5% human serum.
Stimulation of cytokine-release from human mononuclear cells: Human peripheral blood mononuclear cells from Danish donors were suspended in 1-10% (v/v) human serum in RPMI 1640 and adjusted to 2×10^6 cells per ml. 0.1 ml volumes were then dispensed into wells of 96-well microtiter plates. […] In some experiments cells were preincubated with drugs for 2 hrs before addition of stimulation antigens. The cultures were incubated overnight for TNF-α and IL-6 assays.
Supernatants were collected and assayed for TNF-α, IL-1α and IL-6 by ELISA procedures (Jakobsen et al., 1993, Fomsgaard et al., 1988, Hansen et al., 1991) with the following modifications. ELISA Maxisorp plates (Nunc, Roskilde, Denmark) were coated for 24 hrs at 4 C with 100 μl per well of 2.5 μg/ml rabbit polyclonal IgG to human recombinant TNF, IL-1α or IL-6 in 100 mM sodiumhydrogencarbonate. Non-attached sites were blocked for 1 h by 200 μl per well of 2% human serum slbumin in PBS (1 h at 37° C.), and the wells were washed 4 times in 2.5% NaCl, 0.1% Tween 20 (Merck, Darmstadt, Germany). This washing procedure was done after each of the following incubating steps:
1) 100 μl culture supernatants made to 50% (v/v) in incubation buffer (4% (v/v) normal rabbit serum, DAKO code X902), 1% polyethylene glycol (MW 6,000), 2.5% NaCl, 0.1% Tween 20 in phosphate buffered saline (PBS) were incubated 2 hrs at 37° C., dilutions of native as well as recombinant cytokine standards in the same incubation buffer were asssayed in parallel with the tested supernatants,
2) 100 μl per well of biotinilated rabbit antibodies to recombinant TNF-α, IL-1α or IL-6 (1.5 μg/ml in 0.5% human serum albumin, 0.1% Tween 20 in PBS) were added at 37° for 2 hrs,
3) […] per well of a 1:1000 dilution of streptavidin-peroxidase (Amersham, UK), at room temperature for 30 min.
Enzyme activities were quantitated after addition of 100 μl per well of 0.67 mg/ml 1,2-phenyldiamine hydrochloride (DAKO) dissolved in 100 mM citric acid-phosphate buffer, pH 5.0 containing 0.015% (v/v) H2O2. The reactions were stopped by adding 50 μl per well of 2.5 M H2SO4, and the optical densities are measured in an ELISA scanner at 490 nm against a test reference at 620 nm.
Assay: The compounds were prepared as stock solution at a concentration of 1 mg/ml in medium containing 10% DMSO. The dilutions were made in medium. The cells were stimulated with either SPAG (a malaria antigen TNF-inducer) or bacterial LPS. The supernatant of cell cultures were assayed for TNF-α using a commercial ELISA kit.

[5] = Table 1, LPS 1:1000, drug 1 μg/ml
[6] = Table 1, LPS 1:1000, drug 5 μg/ml
[7] = Table 1, LPS 1:1000, drug 10 μg/ml
[8] = Table 1, LPS 1:1000, drug 20 μg/ml, preincubated 2 hrs
[9] = Table 1, SPAG 1:12.5, drug 1 μg/ml
[10] = Table 1, SPAG 1:12.5, drug 5 μg/ml
[11] = Table 1, SPAG 1:12.5, drug 10 μg/ml
[12] = Table 1, SPAG 1:12.5, drug 20 μg/ml, preincubated 2 hrs
[13] = Table 2, LPS 1:1000, drug 1.25 μg/ml
[14] = Table 2, LPS 1:1000, drug 6.25 μg/ml
[15] = Table 2, LPS 1:1000, drug 12.5 μg/ml
[16] = Table 2, LPS 1:1000, drug 20 μg/ml, preincubated 2 hours
[17] = Table 2, SPAG 1:12.5, drug 1.25 μg/ml
[18] = Table 2, SPAG 1:12.5, drug 6.25 μg/ml
[19] = Table 2, SPAG 1:12.5, drug 12.5 μg/ml
[20] = Table 2, SPAG 1:12.5, drug 20 μg/ml, preincubated 2 hours
[21] = Experiment 1, LPS, 12.5 μg/ml, Control 1.17
[22] = Experiment 1, LPS, 25 μg/ml, Control 1.17
[23] = Experiment 1, LPS, 50 μg/ml, Control 1.17
[24] = Experiment 1, LPS, 100 μg/ml, Control 1.17
[25] = Experiment 1, SPAG, 12.5 μg/ml, Control 3.73
[26] = Experiment 1, SPAG, 25 μg/ml, Control 3.73
[27] = Experiment 1, SPAG, 50 μg/ml, Control 3.73
[28] = Experiment 1, SPAG, 100 μg/ml, Control 3.73

## C=CC(C)(C)c1cc(/C=C/C(=O)c2ccc(O)cc2)c(OC)cc1O [Licochalcone A]
[1]
  IC50: 5.6 µM
[2]
  IC50: 13 ± 1 µM
[3]
  IC50: 48 ± 5 µM
[4]; [5]
  percentage inhibition of TNF-α production: 0%
[4]; [6]
  percentage inhibition of TNF-α production: 0%
[4]; [7]
  percentage inhibition of TNF-α production: 40%
[4]; [8]
  percentage inhibition of TNF-α production: 81%
[4]; [9]
  percentage inhibition of TNF-α production: 0%
[4]; [10]
  percentage inhibition of TNF-α production: 13%
[4]; [11]
  percentage inhibition of TNF-α production: 44%
[4]; [12]
  percentage inhibition of TNF-α production: 97%
[4]; [13]
  percentage inhibition of TNF-α production: 4%
[4]; [14]
  percentage inhibition of TNF-α production: 3%
[4]; [15]
  percentage inhibition of TNF-α production: 38%
[4]; [16]
  percentage inhibition of TNF-α production: 54%
[4]; [17]
  percentage inhibition of TNF-α production: 54%
[4]; [18]
  percentage inhibition of TNF-α production: 82%
[4]; [19]
  percentage inhibition of TNF-α production: 94%
[4]; [20]
  percentage inhibition of TNF-α production: 100%

## COc1cc(/C=C/C(=O)c2ccccc2F)cc(OC)c1 [PH135, 2′-fluoro-3,5-dimethoxychalcone]
[1]; Plasmodium falciparum
  IC50: 8.7 µM
[2]; Leishmania
  IC50: 3.5 ± 0.8 µM
[3]; Lymphocyte
  IC50: 6 ± 0.4 µM
[4]; [21]
  TNF-α production (OD values): 0.01 OD
[4]; [22]
  TNF-α production (OD values): 0.01 OD
[4]; [23]
  TNF-α production (OD values): 0.01 OD
[4]; [24]
  TNF-α production (OD values): 0.02 OD
[4]; [25]
  TNF-α production (OD values): 0.02 OD
[4]; [26]
  TNF-α production (OD values): 0.01 OD
[4]; [27]
  TNF-α production (OD values): 0.01 OD
[4]; [28]
  TNF-α production (OD values): 0.01 OD
[4]; Experiment 2, LPS, 1.562 μg/ml, Control 2.06
  TNF-α production (OD values): 0.89 OD
[4]; Experiment 2, LPS, 3.125 μg/ml, Control 2.06
  TNF-α production (OD values): 0.49 OD
[4]; Experiment 2, LPS, 6.25 μg/ml, Control 2.06
  TNF-α production (OD values): 0.09 OD
[4]; Experiment 2, LPS, 12.5 μg/ml, Control 2.06
  TNF-α production (OD values): 0.04 OD
[4]; Experiment 2, SPAG, 1.562 μg/ml, Control 2.28
  TNF-α production (OD values): 0.93 OD
[4]; Experiment 2, SPAG, 3.125 μg/ml, Control 2.28
  TNF-α production (OD values): 0.04 OD
[4]; Experiment 2, SPAG, 6.25 μg/ml, Control 2.28
  TNF-α production (OD values): 0.03 OD
[4]; Experiment 2, SPAG, 12.5 μg/ml, Control 2.28
  TNF-α production (OD values): 0.01 OD

## COc1cc(/C=C/C(=O)c2ccc([N+](=O)[O-])cc2)cc(OC)c1 [PH105, 4′-nitro-3,5-dimethoxychalcone]
[2]; Leishmania
  IC50: 16 ± 1 µM
[3]; Lymphocyte
  IC50: 20 ± 1 µM
[4]
  inhibitory effect on TNF-α production: no or very little inhibitory effect
[4]; [21]
  TNF-α production (OD values): 1.07 OD
[4]; [22]
  TNF-α production (OD values): 1.13 OD
[4]; [23]
  TNF-α production (OD values): 1.69 OD
[4]; [24]
  TNF-α production (OD values): 0.99 OD
[4]; [25]
  TNF-α production (OD values): 1.94 OD
[4]; [26]
  TNF-α production (OD values): 2.00 OD
[4]; [27]
  TNF-α production (OD values): 4.00 OD
[4]; [28]
  TNF-α production (OD values): 2.3 OD

## C=CCOc1ccc(C(=O)/C=C/c2cc(OC)cc(OC)c2)cc1 [SBC-35ma, 3,5-dimethoxy-4′-allyloxychalcone]
[2]; Leishmania
  IC50: 27 ± 2 µM
[3]; Lymphocyte
  IC50: 25 ± 2 µM
[4]; [5]
  inhibition at 1 µg/mL: 0%
[4]; [6]
  inhibition at 5 µg/mL: 1%
[4]; [7]
  inhibition at 10 µg/mL: 56%
[4]; [8]
  inhibition at 20 µg/mL: 73%
[4]; [9]
  inhibition at 1 µg/mL: 0%
[4]; [10]
  inhibition at 5 µg/mL: 0%
[4]; [11]
  inhibition at 10 µg/mL: 55%
[4]; [12]
  inhibition at 20 µg/mL: 100%
[4]; [13]
  inhibition at 1.25 µg/mL: 2%
[4]; [14]
  inhibition at 6.25 µg/mL: 23%
[4]; [15]
  inhibition at 12.5 µg/mL: 28%
[4]; [16]
  inhibition at 20 µg/mL: 33%
[4]; [17]
  inhibition at 1.25 µg/mL: 87%
[4]; [18]
  inhibition at 6.25 µg/mL: 99%
[4]; [19]
  inhibition at 12.5 µg/mL: 100%
[4]; [20]
  inhibition at 20 µg/mL: 100%
